Data from ChEMBL document CHEMBL3585240, “Synthesis and biological evaluation of caracasine acid derivatives” (Bioorg Med Chem, 2015).
Active and inactive are the calls of the source. No cut-off for these calls is given here.

Columns and labels:
Staphylococcus aureus [1] = test: Antibacterial activity against Staphylococcus aureus ATCC 25923 assessed as growth inhibition at 20 ug after 24 hrs by disc agar diffusion method in presence of sulbactam; type: functional; details: ATCC 25923, 24 h, read-out: DIZ
Bacillus cereus [2] = test: Antibacterial activity against Bacillus cereus ATCC 14579 assessed as growth inhibition at 20 ug after 24 hrs by disc agar diffusion method in presence of sulbactam; type: functional, organism-based
Pseudomonas aeruginosa [3] = test: Antibacterial activity against Pseudomonas aeruginosa ATCC 27853 assessed as growth inhibition at 20 ug after 24 hrs by disc agar diffusion method in presence of sulbactam; type: functional; details: ATCC 27853, 24 h, read-out: DIZ
Escherichia coli [4] = test: Antibacterial activity against Escherichia coli ATCC 35218 assessed as growth inhibition at 20 ug after 24 hrs by disc agar diffusion method in presence of sulbactam; type: functional, organism-based
Escherichia coli [5] = test: Antibacterial activity against Escherichia coli ATCC 35218 assessed as growth inhibition at 5 ug after 24 hrs by disc agar diffusion method; type: functional; details: ATCC 35218, 24 h, read-out: DIZ
Staphylococcus aureus [6] = test: Antibacterial activity against Staphylococcus aureus ATCC 25923 assessed as growth inhibition at 5 ug after 24 hrs by disc agar diffusion method; type: functional; details: ATCC 25923, 24 h, read-out: DIZ
Pseudomonas aeruginosa [7] = test: Antibacterial activity against Pseudomonas aeruginosa ATCC 27853 assessed as growth inhibition at 5 ug after 24 hrs by disc agar diffusion method; type: functional; details: ATCC 27853, 24 h, read-out: DIZ
Bacillus cereus [8] = test: Antibacterial activity against Bacillus cereus ATCC 14579 assessed as growth inhibition at 5 ug after 24 hrs by disc agar diffusion method; type: functional; details: ATCC 14579, 24 h, read-out: DIZ
Escherichia coli [9] = test: Antibacterial activity against Escherichia coli ATCC 35218 assessed as growth inhibition at 15 ug after 24 hrs by disc agar diffusion method; type: functional; details: ATCC 35218, 24 h, read-out: DIZ
Bacillus cereus [10] = test: Antibacterial activity against Bacillus cereus ATCC 14579 assessed as growth inhibition at 15 ug after 24 hrs by disc agar diffusion method; type: functional; details: ATCC 14579, 24 h, read-out: DIZ
Staphylococcus aureus [11] = test: Antibacterial activity against Staphylococcus aureus ATCC 25923 assessed as growth inhibition at 15 ug after 24 hrs by disc agar diffusion method; type: functional; details: ATCC 25923, 24 h, read-out: DIZ
Pseudomonas aeruginosa [12] = test: Antibacterial activity against Pseudomonas aeruginosa ATCC 27853 assessed as growth inhibition at 15 ug after 24 hrs by disc agar diffusion method; type: functional; details: ATCC 27853, 24 h, read-out: DIZ
Escherichia coli [13] = test: Antibacterial activity against Escherichia coli ATCC 35218 assessed as growth inhibition at 2 mg/ml after 24 hrs by disc agar diffusion method; type: functional; details: ATCC 35218, 24 h, read-out: DIZ
[14] = Cytotoxicity against human skin fibroblasts assessed as growth inhibition after 72 hrs by MTT assay; details: Skin fibroblast
[15] = Selectivity index, ratio of IC50 for human skin fibroblasts to IC50 for promastigote stage of Leishmania mexicana Bel21
Leishmania mexicana = test: Antileishmanial activity against promastigote stage of Leishmania mexicana Bel21 assessed as growth inhibition after 48 hrs by MTT assay; type: functional, organism-based; details: Bel21, 48 h
PC-3 [16] = test: Cytotoxicity against human PC3 cells assessed as growth inhibition after 72 hrs by MTT assay; type: functional, cell-based; details: PC-3, 72 h
Pseudomonas aeruginosa [17] = test: Antibacterial activity against Pseudomonas aeruginosa ATCC 27853 assessed as growth inhibition at 2 mg/ml after 24 hrs by disc agar diffusion method; type: functional; details: ATCC 27853, 24 h, read-out: DIZ
PC-3 [18] = test: Selectivity index, ratio of IC50 for human skin fibroblasts to IC50 for human PC3 cells
Bacillus cereus [19] = test: Antibacterial activity against Bacillus cereus ATCC 14579 assessed as growth inhibition at 2 mg/ml after 24 hrs by disc agar diffusion method; type: functional; details: ATCC 14579, 24 h, read-out: DIZ
MCF7 [20] = test: Selectivity index, ratio of IC50 for human skin fibroblasts to IC50 for human MCF7 cells
MCF7 [21] = test: Cytotoxicity against human MCF7 cells assessed as growth inhibition after 72 hrs by MTT assay; type: functional, cell-based; details: MCF7, 72 h
Trypanosoma cruzi = test: Antitrypanosomal activity against epimastigote stage of Trypanosoma cruzi CL Brener assessed as growth inhibition after 5 days by MTT assay; type: functional; details: 120 h
[22] = Selectivity index, ratio of IC50 for human skin fibroblasts to IC50 for epimastigote stage of Trypanosoma cruzi CL Brener
Staphylococcus aureus [23] = test: Antibacterial activity against Staphylococcus aureus ATCC 25923 assessed as growth inhibition at 2 mg/ml after 24 hrs by disc agar diffusion method; type: functional; details: ATCC 25923, 24 h, read-out: DIZ
Bacillus cereus [24] = test: Antibacterial activity against Bacillus cereus ATCC 14579 assessed as growth inhibition at 30 ug after 24 hrs by disc agar diffusion method; type: functional; details: ATCC 14579, 24 h, read-out: DIZ
Pseudomonas aeruginosa [25] = test: Antibacterial activity against Pseudomonas aeruginosa ATCC 27853 assessed as growth inhibition at 30 ug after 24 hrs by disc agar diffusion method; type: functional; details: ATCC 27853, 24 h, read-out: DIZ
Escherichia coli [26] = test: Antibacterial activity against Escherichia coli ATCC 35218 assessed as growth inhibition at 30 ug after 24 hrs by disc agar diffusion method; type: functional; details: ATCC 35218, 24 h, read-out: DIZ
Staphylococcus aureus [27] = test: Antibacterial activity against Staphylococcus aureus ATCC 25923 assessed as growth inhibition at 30 ug after 24 hrs by disc agar diffusion method; type: functional; details: ATCC 25923, 24 h, read-out: DIZ

| IC50 (Trypanosoma cruzi) [µM] | SMILES | zone of inhibition at 2000 µg/mL (Escherichia coli [13]) [mm] | IC50 [14] [µM] | Ratio IC50 [15] | IC50 (Leishmania mexicana) [µM] | IC50 (PC-3 [16]) [µM] | zone of inhibition at 2000 µg/mL (Pseudomonas aeruginosa [17]) [mm] | Ratio IC50 (PC-3 [18]) | zone of inhibition at 2000 µg/mL (Bacillus cereus [19]) [mm] | Ratio IC50 (MCF7 [20]) | IC50 (MCF7 [21]) [µM] | Ratio IC50 [22] | zone of inhibition at 2000 µg/mL (Staphylococcus aureus [23]) [mm] | other results |
| --- | --- | --- | --- | --- | --- | --- | --- | --- | --- | --- | --- | --- | --- | --- |
| – | CC1(C)S[C@@H]2[C@H](NC(=O)[C@H](N)c3ccccc3)C(=O)N2[C@H]1C(=O)O [AMPICILLIN] | – | – | – | – | – | – | – | – | – | – | – | – | zone of inhibition at 20 µg/disc (Staphylococcus aureus [1]): 18 mm; growth inhibition (GI) (Bacillus cereus [2]): inactive; zone of inhibition at 20 µg/disc (Pseudomonas aeruginosa [3]): 12 mm; growth inhibition (GI) (Escherichia coli [4]): inactive |
| – | CC1COc2c(N3CCN(C)CC3)c(F)cc3c(=O)c(C(=O)O)cn1c23 (configuration not stated) [OFLOXACIN] | – | – | – | – | – | – | – | – | – | – | – | – | zone of inhibition at 5 µg/disc (Escherichia coli [5]): 24 mm; zone of inhibition at 5 µg/disc (Staphylococcus aureus [6]): 25 mm; zone of inhibition at 5 µg/disc (Pseudomonas aeruginosa [7]): 15 mm; zone of inhibition at 5 µg/disc (Bacillus cereus [8]): 28 mm |
| – | CC[C@H]1OC(=O)C[C@@H](O)[C@H](C)[C@@H](O[C@@H]2O[C@H](C)[C@@H](O)[C@H](N(C)C)[C@H]2O)[C@@H](CCN2C[C@H](C)C[C@H](C)C2)C[C@@H](C)C(=O)/C=C/C(C)=C/[C@@H]1CO[C@@H]1O[C@H](C)[C@@H](O)[C@@H](OC)[C@H]1OC [TILMICOSIN] | – | – | – | – | – | – | – | – | – | – | – | – | zone of inhibition at 15 µg/disc (Escherichia coli [9]): 18 mm; zone of inhibition at 15 µg/disc (Bacillus cereus [10]): 32 mm; zone of inhibition at 15 µg/disc (Staphylococcus aureus [11]): 23 mm; zone of inhibition at 15 µg/disc (Pseudomonas aeruginosa [12]): 18 mm |
| 4.1 | C=C1C(=O)[C@@]23CC[C@H](C(=C)C)[C@@](C)(CCC(=O)OCc4ccccc4)[C@@H]2CC[C@H]1C3 | 22 | 3.1 | 3.1 | 1 | 5.5 | 15 | 0.6 | 24 | 0.8 | 3.7 | 0.8 | 15 | – |
| – | NCC[C@H](O)C(=O)N[C@@H]1C[C@H](N)[C@@H](O[C@H]2O[C@H](CN)[C@@H](O)[C@H](O)[C@H]2O)[C@H](O)[C@H]1O[C@H]1O[C@H](CO)[C@@H](O)[C@H](N)[C@H]1O [AMIKACIN] | – | – | – | – | – | – | – | – | – | – | – | – | zone of inhibition at 30 µg/disc (Bacillus cereus [24]): 32 mm; zone of inhibition at 30 µg/disc (Pseudomonas aeruginosa [25]): 16 mm; zone of inhibition at 30 µg/disc (Escherichia coli [26]): 22 mm; zone of inhibition at 30 µg/disc (Staphylococcus aureus [27]): 16 mm |
| 16.5 | C=C1C(=O)[C@@]23CC[C@H](C(=C)C)[C@@](C)(CCC(=O)OC)[C@@H]2CC[C@H]1C3 | 15 | 11.3 | 3.3 | 3.4 | 3.6 | 15 | 3.1 | 22 | 1 | 11.2 | 0.7 | 12 | – |
